Data published in patent US11000033B2, “Ketone or oxime compound, and herbicide” (NISSAN CHEMICAL CORPORATION, priority 2014, dated 2021).

Key:
Format in all cases: in vivo
corn [1] = experiment: Test Example 5: effect on crop by foliage application, plastic box (symbol c); details: 320 g/ha, 3 weeks after application
In short: (§1)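 Soil: sterilized diluvial. Container: plastic box, 21 × 13 cm, 7 cm deep. Sowing: spot-like, ~1.5 cm cover. Growth: greenhouse, 25° C. to 30° C.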

Monochoria vaginalis = experiment: Test Example 1: herbicidal activity, application before weed generation in submerged conditions (symbol C); details: application herbicide amount 320 g/ha
In short: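 Application before weed emergence: an aqueous dilution of the emulsion formulation was poured onto the surface of 4 cm-deep floodwater on the day of sowing. Effect was judged after 3 weeks (greenhouse, 25–30 °C).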

rice plant = experiment: Test Example 5: effect on crop by foliage application, plastic box (symbol b); details: 320 g/ha, 3 weeks after application
In short: as §1

soybean [2] = experiment: Test Example 4: effect on crop by soil treatment (symbol d); details: application herbicide amount 320 g/ha
In short: (§2)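 Diluvial soil (sterilized) in boxes; seeds placed spot-wise alongside weed species; ~1.5 cm covering soil. Greenhouse, 25–30° C.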

Leptochloa chinensis = experiment: Test Example 3: herbicidal effect by foliage application, Wagner pot (symbol D); details: application herbicide amount 320 g/ha
In short: (§3)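 Herbicidal activity was rated three weeks after a foliar spray of diluted emulsion concentrate, applied at a predetermined dose to plants grown for 14 days from seed in waterlogged alluvial soil within a 25–30 °C greenhouse.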

Cyperus difformis = experiment: Test Example 3: herbicidal effect by foliage application, Wagner pot (symbol E); details: application herbicide amount 320 g/ha
In short: as §3

beet = experiment: Test Example 5: effect on crop by foliage application, plastic box (symbol f); details: 320 g/ha, 3 weeks after application
In short: as §1

[3] = tested on: Echinochloa crus-galli var. crus-galli; experiment: Test Example 3: herbicidal effect by foliage application, Wagner pot (symbol H); details: application herbicide amount 320 g/ha
In short: as §3

soybean [4] = experiment: Test Example 5: effect on crop by foliage application, plastic box (symbol d); details: 320 g/ha, 3 weeks after application
In short: as §1

wheat = experiment: Test Example 4: effect on crop by soil treatment (symbol e); details: application herbicide amount 320 g/ha
In short: as §2

corn [5] = experiment: Test Example 4: effect on crop by soil treatment (symbol c); details: application herbicide amount 320 g/ha
In short: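 Crop seed is sown in spots together with several weed species in a box of sterilized diluvial soil. It is covered by about 1.5 cm of soil and kept in a greenhouse held between 25° C. and 30° C.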

Scirpus juncoides = experiment: Test Example 2: herbicidal activity, application during weed generation in submerged conditions (symbol B); details: Table 23; application herbicide amount 320 g/ha; grade 0-5 by criteria of Test Example 1
In short: (§4)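 Visual herbicidal ratings, taken three weeks after dosing, reflect post-emergence water-surface application to seedlings at one to two leaves. Conditions: co-sown weeds in alluvial soil flooded to 4 cm, greenhouse held at 25° C. to 30° C.; compound given as water-diluted emulsion at a fixed herbicide amount.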

[6] = tested on: Echinochloa oryzacola Vasing.; experiment: Test Example 2: herbicidal activity, application during weed generation in submerged conditions (symbol A); details: Table 23; application herbicide amount 320 g/ha; grade 0-5 by criteria of Test Example 1
In short: as §4

Abutilon theophrasti = experiment: Test Example 4: herbicidal effect by soil treatment (symbol M); details: application herbicide amount 320 g/ha
In short: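 Seeds were sown in sterilized diluvial soil, covered with about 1.5 cm of soil, and the soil surface was sprayed with a water-diluted emulsion of the compound at a predetermined rate. Plants grew in a greenhouse at 25° C. to 30° C.; effects were scored visually 3 weeks after application.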

transplanted rice plant = experiment: Test Example 1: effect on crop, application before weed generation in submerged conditions (symbol a); details: application herbicide amount 320 g/ha
In short: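 Rice at 2.5 leaf stage transplanted into submerged soil (4 cm depth) sown with three weed species; herbicide applied before weed emergence.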

| Compound | c: corn, effect on crop grade (corn [1]) | Herbicidal effect grade, C: Monochoria vaginalis (Monochoria vaginalis) | b: directly sowed rice plant, effect on crop grade (rice plant) | d (soybean) effect on crop grade (soybean [2]) | herbicidal effect on D (Leptochloa chinensis), grade 0-5 (Leptochloa chinensis) | herbicidal effect on E, grade 0-5 (Cyperus difformis) | f: beet, effect on crop grade (beet) | herbicidal effect on H (Echinochloa crus-galli var. crus-galli), grade 0-5 [3] | d: soybean, effect on crop grade (soybean [4]) | e (wheat) effect on crop grade (wheat) | c (corn) effect on crop grade (corn [5]) | Herbicidal effect grade, B: Scirpus juncoides (Scirpus juncoides) | Herbicidal effect grade, A: Echinochloa oryzacola Vasing. [6] | M (Abutilon theophrasti) herbicidal effect grade (Abutilon theophrasti) | Effect grade on crop, a: transplanted rice plant (transplanted rice plant) | further results |
| --- | --- | --- | --- | --- | --- | --- | --- | --- | --- | --- | --- | --- | --- | --- | --- | --- |
| CON=C(C)CC1CC(OC(=O)C(C)(C)CCl)=C(c2c(C)cc(C)cc2C)C1=O (stereo not drawn) [1-016] | 4 (Herbicidal ratio of 70% or higher and lower than 90%) | 4 (Herbicidal ratio of 70% or higher and lower than 90%) | 5 (Herbicidal ratio of 90% or more (almost completely withered)) | 3 (Herbicidal ratio of 40% or higher and lower than 70%) | 5 (Herbicidal ratio of 90% or more (almost completely withered)) | 5 (Herbicidal ratio of 90% or more (almost completely withered)) | 3 (Herbicidal ratio of 40% or higher and lower than 70%) | 5 (Herbicidal ratio of 90% or more (almost completely withered)) | 4 (Herbicidal ratio of 70% or higher and lower than 90%) | 2 (Herbicidal ratio of 20% or higher and lower than 40%) | 4 (Herbicidal ratio of 70% or higher and lower than 90%) | 4 (Herbicidal ratio of 70% or higher and lower than 90%) | 5 (Herbicidal ratio of 90% or more (almost completely withered)) | 5 (Herbicidal ratio of 90% or more (almost completely withered)) | 5 (Herbicidal ratio of 90% or more (almost completely withered)) | – |
| CC(CC1CC(O)=C(c2c(C)cc(C)cc2C)C1=O)=NOCc1ccccn1 (stereo not drawn) [1-022] | 3 (Herbicidal ratio of 40% or higher and lower than 70%) | 2 (Herbicidal ratio of 20% or higher and lower than 40%) | 5 (Herbicidal ratio of 90% or more (almost completely withered)) | 0 (Herbicidal ratio of 5% or lower (almost no effect)) | 5 (Herbicidal ratio of 90% or more (almost completely withered)) | 4 (Herbicidal ratio of 70% or higher and lower than 90%) | 0 (Herbicidal ratio of 5% or lower (almost no effect)) | 5 (Herbicidal ratio of 90% or more (almost completely withered)) | 3 (Herbicidal ratio of 40% or higher and lower than 70%) | 4 (Herbicidal ratio of 70% or higher and lower than 90%) | 0 (Herbicidal ratio of 5% or lower (almost no effect)) | 5 (Herbicidal ratio of 90% or more (almost completely withered)) | 4 (Herbicidal ratio of 70% or higher and lower than 90%) | 0 (Herbicidal ratio of 5% or lower (almost no effect)) | 5 (Herbicidal ratio of 90% or more (almost completely withered)) | – |
| C=CCON=C(C)CC1CC(O)=C(c2c(C)cc(C)cc2C)C1=O (stereo not drawn) [1-018] | 5 (Herbicidal ratio of 90% or more (almost completely withered)) | 2 (Herbicidal ratio of 20% or higher and lower than 40%) | 5 (Herbicidal ratio of 90% or more (almost completely withered)) | 0 (Herbicidal ratio of 5% or lower (almost no effect)) | 5 (Herbicidal ratio of 90% or more (almost completely withered)) | 3 (Herbicidal ratio of 40% or higher and lower than 70%) | 4 (Herbicidal ratio of 70% or higher and lower than 90%) | 5 (Herbicidal ratio of 90% or more (almost completely withered)) | 3 (Herbicidal ratio of 40% or higher and lower than 70%) | 4 (Herbicidal ratio of 70% or higher and lower than 90%) | 4 (Herbicidal ratio of 70% or higher and lower than 90%) | 5 (Herbicidal ratio of 90% or more (almost completely withered)) | 5 (Herbicidal ratio of 90% or more (almost completely withered)) | 4 (Herbicidal ratio of 70% or higher and lower than 90%) | 5 (Herbicidal ratio of 90% or more (almost completely withered)) | – |
| CCc1cc(Br)cc(C)c1C1=C(O)CC(C(C(C)=O)C(=O)OC)C1=O (stereo not drawn) [7-001] | – | 0 (Herbicidal ratio of 5% or lower (almost no effect)) | – | – | 5 (Herbicidal ratio of 90% or more (almost completely withered)) | 0 (Herbicidal ratio of 5% or lower (almost no effect)) | – | 4 (Herbicidal ratio of 70% or higher and lower than 90%) | – | – | – | 0 (Herbicidal ratio of 5% or lower (almost no effect)) | 0 (Herbicidal ratio of 5% or lower (almost no effect)) | – | 0 (Herbicidal ratio of 5% or lower (almost no effect)) | c: corn, effect on crop (criteria of Test Example 1) (corn [1]): 2 (Herbicidal ratio of 20% or higher and lower than 40%); b: directly sowed rice plant, effect on crop (criteria of Test Example 1) (rice plant): 1 (Herbicidal ratio of 5% or higher and lower than 20%); Effect on crop grade, d: soybean (soybean [2]): 0 (Herbicidal ratio of 5% or lower (almost no effect)); f: beet, effect on crop (criteria of Test Example 1) (beet): 0 (Herbicidal ratio of 5% or lower (almost no effect)); d: soybean, effect on crop (criteria of Test Example 1) (soybean [4]): 0 (Herbicidal ratio of 5% or lower (almost no effect)); Effect on crop grade, e: wheat (wheat): 0 (Herbicidal ratio of 5% or lower (almost no effect)); Effect on crop grade, c: corn (corn [5]): 0 (Herbicidal ratio of 5% or lower (almost no effect)); Herbicidal effect grade, M: Abutilon theophrasti (Abutilon theophrasti): 0 (Herbicidal ratio of 5% or lower (almost no effect)) |
| CON=C(C)CC1CC(OC(=O)C2CC2)=C(c2c(C)cc(C)cc2C)C1=O (stereo not drawn) [1-015] | 5 (Herbicidal ratio of 90% or more (almost completely withered)) | 2 (Herbicidal ratio of 20% or higher and lower than 40%) | 5 (Herbicidal ratio of 90% or more (almost completely withered)) | 3 (Herbicidal ratio of 40% or higher and lower than 70%) | 5 (Herbicidal ratio of 90% or more (almost completely withered)) | 5 (Herbicidal ratio of 90% or more (almost completely withered)) | 3 (Herbicidal ratio of 40% or higher and lower than 70%) | 5 (Herbicidal ratio of 90% or more (almost completely withered)) | 5 (Herbicidal ratio of 90% or more (almost completely withered)) | 3 (Herbicidal ratio of 40% or higher and lower than 70%) | 4 (Herbicidal ratio of 70% or higher and lower than 90%) | 4 (Herbicidal ratio of 70% or higher and lower than 90%) | 5 (Herbicidal ratio of 90% or more (almost completely withered)) | 5 (Herbicidal ratio of 90% or more (almost completely withered)) | 5 (Herbicidal ratio of 90% or more (almost completely withered)) | – |
